Data published in patent US9233092B2, “Compositions and methods for inhibiting gastric acid secretion using derivatives of small dicarboxylic acids in combination with PPI” (Vecta, Ltd., priority 2006, dated 2016).
“Also recorded” adds a separate entry of the source.

How the values were obtained:
gastric acid secretion [1] = assay: Stimulation of gastric acid secretion after oral administration, pylorus ligated 60 min after dosing, acid output by NaOH titration; format: in vivo; settings: rats, per os, SA 14.88 mg/kg, mS 16.65 mg/kg, dmS 17.65 mg/kg, gastric juice collected 30 min later
Description: Rats were administered (per os) with succinic acid (SA, 14.88 mg/kg), monomethylester of succinic acid (mS, 16.65 mg/kg) or dimethyl ester of succinic acid (dmS, 17.65 mg/kg) using gavage. 60 minutes later the rats were anesthetized with ketamine/domitor and the pylorus was ligated. Following additional 30 min, gastric juice was collected from the gastric lumen. Acid output was determined by titration with NaOH. Total acid output expressed in mEq HCl was calculated by multiplying the sample volume by the acid concentration. Results are expressed as means±SEM of 8 animals from each experimental group.

gastric acid secretion [2] = assay: Conscious pylorus-ligated rats: effect of succinates on the activity of pantoprazole on gastric acid secretion; format: in vivo; settings: oral gavage, succinate (SA 14.88 mg/kg or dmS 17.65 mg/kg) given 30 min prior to pantoprazole, FIG. 2
Description: To further study the delayed or sustained enhancement effect of dimethyl ester of succinic acid on the activity of pantoprazole, an experimental model of conscious pylorus-ligated rats was used. This experimental model permits the analysis of the effect of drugs on gastric acid secretion in conscious animals and avoids the effect of anesthesia on gastric acid secretion. Pantoprazole alone ([…]) or in combination with succinic acid (SA, 14.88 mg/kg) or dimethyl ester of succinic acid (dmS, 17.65 mg/kg) were administered by oral gavage. The succinates were administered 30 min prior to the administration of pantoprazole in order to test the sustained or delayed effect of dimethyl ester of succinic acid compared to the non-derivatized succinic acid. 120 min post succinates administration, the animals were anesthetized using anesthetic gas machine for a short period (5 minutes) that is sufficient to perform the pylorus ligation procedure and to close the abdomen. The animals were then placed back into its cage for additional 110 min after which the animals were sacrificed. The ligature was placed around the esophagus, the stomach removed and gastric content was collected. Following centrifugation, the gastric output and the pH of the gastric juice samples was determined. Data is presented as mean±SEM of gastric output. The number of animals is 6-7 in each experimental group.

gastric acid output = settings: humans; Teyssen et al., J. Clin Invest. 1999; cited from earlier work

Row | SMILES | gastric acid output (total acid output) (gastric acid secretion [1]; FIG. 1) | gastric acid output (total acid output) (gastric acid secretion [1]; FIG. 1, listed as succinic acid dimethyl ester) | enhancement of the effect of pantoprazole (PPI) on gastric acid output (gastric acid secretion [2]) | stimulation of gastric acid output (gastric acid output)
1 | COC(=O)CCC(=O)OC [dmS, dimethyl ester of succinic acid] | effective in enhancing gastric output | capable of enhancing gastric acid output even after 60 minutes from dosing | capable of enhancing the activity of pantoprazole on gastric acid secretion; also recorded: capable of enhancing the effect of PPI on gastric acid output | 
2 | O=C(O)/C=C\C(=O)O [Maleic acid] |  |  |  | powerful stimulants of gastric acid output
3 | O=C(O)CCC(=O)O [SA, succinic acid, reference compound] | did not show an effect |  | only dimethyl ester of succinic acid was capable of enhancing the effect of PPI | powerful stimulants of gastric acid output
4 | COC(=O)CCC(=O)O [mS, monomethylester of succinic acid] | effective in enhancing gastric output |  |  | 
